Test results published in patent publication US11471537B2, “Oligomer extended insulin-Fc conjugates” (Novo Nordisk A/S, priority 2017, dated 2022).

Experiments:
insulin receptor A = insulin receptor A (Homo sapiens, UniProt P06213); experiment: Insulin receptor affinity; assay type: binding; details: relative to affinity of human insulin for insulin receptor A (100%)
Sprague-Dawley rats = experiment: PD studies: blood glucose after subcutaneous dosing; assay type: in vivo; details: sc, dose 30 nmol/kg
Procedure: The pharmacodynamic effect of the Insulin Fc conjugates of the examples were investigated in normal male Sprague-Dawley rats weighing approx. 350 g at study start.
Animals had free access to food and water during the experiment period. They were dosed subcutaneously in the neck region with a dose of 30 nmol/kg (unless otherwise stated in the figures below). Blood samples for blood glucose and plasma insulin analysis were collected from the tongue veins up to 10 days post dosing. Blood glucose was measured using Biosen S Line (EKF).

[1] = PK studies: intravenous and subcutaneous administration to SD rats, insulin-Fc concentrations by immuno-assay; assay type: in vivo; details: for PK rat sc [T½ (h)] Mean Value: subcutaneous
Procedure: Insulin-Fc conjugates were tested in vivo by intravenous and subcutaneous administration to SD rats. Blood samples were collected and the insulin-Fc concentrations were measured by immuno-assay.

isolated rat adipocytes = experiment: Insulin-stimulated lipogenesis; assay type: cell-based; details: 1% HSA; relative to the activity of human insulin (100%)
Procedure: Insulin-stimulated lipogenesis was measured in isolated rat adipocytes in presence of 1% HSA as described in Moody A J, Stan M A, Stan M, Gliemann J. A Simple Free Fat Cell Bioassay for Insulin. Hormone And Metabolic Research. 1974; 6(1):12-6, see results in Table 6.

Sequence of insulin receptor A (P06213 28-1370 isoform P06213-2 limits assumed): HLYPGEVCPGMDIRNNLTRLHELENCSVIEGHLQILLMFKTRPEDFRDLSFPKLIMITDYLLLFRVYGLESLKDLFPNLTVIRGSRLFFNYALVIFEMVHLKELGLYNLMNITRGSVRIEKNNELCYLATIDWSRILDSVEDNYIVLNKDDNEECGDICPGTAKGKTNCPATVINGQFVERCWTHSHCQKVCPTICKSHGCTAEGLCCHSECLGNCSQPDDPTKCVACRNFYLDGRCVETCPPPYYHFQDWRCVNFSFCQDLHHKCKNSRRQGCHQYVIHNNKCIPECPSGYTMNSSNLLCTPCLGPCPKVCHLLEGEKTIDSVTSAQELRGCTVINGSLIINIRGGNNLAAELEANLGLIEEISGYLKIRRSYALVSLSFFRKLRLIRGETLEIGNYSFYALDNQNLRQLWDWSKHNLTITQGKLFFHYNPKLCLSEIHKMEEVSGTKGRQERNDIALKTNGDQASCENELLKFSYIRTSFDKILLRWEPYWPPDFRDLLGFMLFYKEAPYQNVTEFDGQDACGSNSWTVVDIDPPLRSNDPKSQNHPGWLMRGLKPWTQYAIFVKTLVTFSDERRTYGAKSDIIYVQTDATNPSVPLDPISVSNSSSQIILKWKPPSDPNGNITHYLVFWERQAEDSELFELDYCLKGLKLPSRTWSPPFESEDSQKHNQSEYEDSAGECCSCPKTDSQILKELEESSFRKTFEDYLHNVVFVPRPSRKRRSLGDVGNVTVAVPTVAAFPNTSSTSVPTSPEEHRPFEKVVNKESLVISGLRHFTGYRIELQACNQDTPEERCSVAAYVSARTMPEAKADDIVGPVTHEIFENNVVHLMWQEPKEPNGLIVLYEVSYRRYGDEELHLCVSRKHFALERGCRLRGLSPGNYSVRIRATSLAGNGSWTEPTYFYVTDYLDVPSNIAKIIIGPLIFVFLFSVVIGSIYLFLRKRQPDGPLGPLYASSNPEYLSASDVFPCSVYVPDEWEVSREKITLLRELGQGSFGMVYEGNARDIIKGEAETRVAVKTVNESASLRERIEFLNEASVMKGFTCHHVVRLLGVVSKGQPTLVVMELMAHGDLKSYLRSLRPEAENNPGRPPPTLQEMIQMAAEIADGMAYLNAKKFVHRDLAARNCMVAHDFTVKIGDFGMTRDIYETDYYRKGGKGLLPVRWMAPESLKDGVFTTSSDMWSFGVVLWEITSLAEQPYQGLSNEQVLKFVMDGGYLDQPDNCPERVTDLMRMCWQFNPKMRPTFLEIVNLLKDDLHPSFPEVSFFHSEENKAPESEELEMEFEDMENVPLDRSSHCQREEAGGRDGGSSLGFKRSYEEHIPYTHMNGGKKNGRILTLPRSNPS
Sequence of insulin receptor A (P06213 763-1382 partner limits assumed): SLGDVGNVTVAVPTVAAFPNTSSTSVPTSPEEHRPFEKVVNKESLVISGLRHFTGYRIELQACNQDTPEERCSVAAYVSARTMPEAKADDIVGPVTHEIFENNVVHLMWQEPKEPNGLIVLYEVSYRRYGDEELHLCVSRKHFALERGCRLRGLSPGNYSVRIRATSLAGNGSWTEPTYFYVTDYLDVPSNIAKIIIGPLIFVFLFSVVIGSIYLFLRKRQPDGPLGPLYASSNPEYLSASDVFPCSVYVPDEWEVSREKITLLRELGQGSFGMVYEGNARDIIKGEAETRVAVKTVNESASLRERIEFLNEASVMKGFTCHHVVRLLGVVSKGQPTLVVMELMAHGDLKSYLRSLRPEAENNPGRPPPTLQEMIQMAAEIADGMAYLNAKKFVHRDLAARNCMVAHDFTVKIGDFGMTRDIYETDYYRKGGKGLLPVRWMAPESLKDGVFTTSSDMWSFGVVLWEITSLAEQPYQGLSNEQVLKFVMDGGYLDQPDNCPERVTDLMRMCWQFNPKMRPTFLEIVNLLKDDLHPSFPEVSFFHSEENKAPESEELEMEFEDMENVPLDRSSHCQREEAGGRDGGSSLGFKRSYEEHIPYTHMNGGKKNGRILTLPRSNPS

Row | Substance | Insulin receptor affinity [IC50 relative to HI (%)] Mean Value (insulin receptor A) | Average blood glucose (Sprague-Dawley rats; time 0 days) | Average blood glucose (Sprague-Dawley rats; time 0.041667 days) | Average blood glucose (Sprague-Dawley rats; time 0.125 days) | Average blood glucose (Sprague-Dawley rats; time 0.291667 days) | Average blood glucose (Sprague-Dawley rats; time 1 day) | Average blood glucose (Sprague-Dawley rats; time 2 days) | Average blood glucose (Sprague-Dawley rats; time 3 days) | Average blood glucose (Sprague-Dawley rats; time 4 days) | Average blood glucose (Sprague-Dawley rats; time 5 days) | Average blood glucose (Sprague-Dawley rats; time 6 days) | Average blood glucose (Sprague-Dawley rats; time 7 days) | Average blood glucose (Sprague-Dawley rats; time 8 days) | Average blood glucose (Sprague-Dawley rats; time 9 days) | Average blood glucose (Sprague-Dawley rats; time 10 days) | PK rat iv [T½ (h)] Mean Value [1] | PK rat sc [T½ (h)] Mean Value [1] | Lipogenesis in rat adipocytes [Potency (%)] Mean Value (isolated rat adipocytes) | Average blood glucose (Sprague-Dawley rats; time 0.208333 days)
1 | (A1(N(alpha)acetyl), A14E, A21G, A22(GQAP)19, A98K^, A99P, B1(N(alpha)acetyl), B25H, B29R, desB30 human insulin)/(227A, 234A, 235K, 297E, 315Q, 384Q, des447 hIgG4-Fc(228-447))4-[bis[2-[(2-acetyl)amino]ethyl]amino]-4-oxo-butanoyl Conjugate [Example 5.27] | 1.07% | 5.504 mM | 6.308 mM | 5.72 mM | 5.164 mM | 3.036 mM | 3.852 mM | 4.384 mM | 5.272 mM | 5.236 mM | 5.564 mM | 5.824 mM | 5.924 mM | 5.68 mM | 6.12 mM | 40.7 h | 50.4 h |  | 
2 | A14E, A21G, A22(GQAPGQAPGQEP)6-GQAP, A98K^, A99P, B3Q, B25H, B29R, desB30 human insulin/(227A, 234A, 235K, 297E, 315Q, 3840, des447 hIgG4-Fc(228-447))4-[bis[2-[(2-acetyl)amino]ethyl]amino]-4-oxo-butanoyl Conjugate [Example 5.13] | 5.55% | 6.384 mM | 5.976 mM | 4.892 mM | 4.184 mM | 2.428 mM | 2.452 mM | 3.308 mM | 5.676 mM |  | 5.908 mM | 5.812 mM | 5.492 mM |  |  |  |  | 3.07% | 
3 | A14E, B(−78K^), B(−77P), B(−1)(GQAPGQAPGQEP)6-GQAP, B3Q, B25H, B29R, desB30 human insulin/(227A, 234A, 235K hIgG4-Fc(228-447))4-[bis[2-[(2-acetyl)amino]ethyl]amino]-4-oxo-butanoyl Conjugate [Example 5.3] | 2.57% |  |  |  |  |  |  |  |  |  |  |  |  |  |  | 35.6 h | 33.1 h | 0.55% | 
4 | A14E, B(−78K^), B(−77P), B(−1)(GQAP)19, B25H, B29R, desB30 human insulin/(227A, 234A, 235K, 297E, 315Q, 384Q, des447 hIgG4-Fc(228-447))4-[bis[2-[(2-acetyl)amino]ethyl]amino]-4-oxo-butanoyl Conjugate [Example 5.18] | 2.78% |  |  |  |  |  |  |  |  |  |  |  |  |  |  | 24.9 h | 28.0 h | 0.87% | 
5 | A14E, B(−78K^), B(−77P), B(−1)(GQEP)19, B25H, B29R, desB30 human insulin/(227A, 234A, 235K hIgG4-Fc(228-447))4-[bis[2-[(2-acetyl)amino]ethyl]amino]-4-oxo-butanoyl Conjugate [Example 5.4] | 2.14% |  |  |  |  |  |  |  |  |  |  |  |  |  |  | 26.4 h | 32.2 h | 0.36% | 
6 | A14E, A21G, A22(GQEP)6, A46K^, A47P, B25H, B29R, desB30 human insulin/(227A, 234A, 235K hIgG4-Fc(228-447))4-[bis[2-[(2-acetyl)amino]ethyl]amino]-4-oxo-butanoyl Conjugate [Example 5.7] | 2.43% | 5.918 mM | 5.682 mM | 4.502 mM | 3.428 mM | 2.758 mM | 2.15 mM | 2.3 mM | 2.81 mM | 4.404 mM | 6.702 mM | 6.518 mM | 6.33 mM |  |  |  |  | 1.88% | 3.974 mM
7 | A14E, A21G, A22(GQAPGQEP)6, A70K^, A71P, B25H, B29R, desB30 human insulin/(227A, 234A, 235K hIgG4-Fc(228-447))4-[bis[2-[(2-acetyl)amino]ethyl]amino]-4-oxo-butanoyl Conjugate [Example 5.9] | 2.96% | 5.812 mM | 5.448 mM | 5.438 mM | 4.426 mM | 3.044 mM | 2.614 mM | 2.594 mM | 3.734 mM | 5.932 mM | 6.244 mM | 6.312 mM | 6.186 mM |  |  |  |  | 3.02% | 4.902 mM
8 | (A14E, A21G, A22(GQEP)19, A98K^, A99P, B25H, B29R, desB30 human insulin)/(227A, 234A, 235K hIgG4-Fc(228-447))4-[bis[2-[(2-acetyl)amino]ethyl]amino]-4-oxo-butanoyl Conjugate [Example 5.1] | 5.07% | 6.68 mM | 5.888 mM | 4.988 mM | 3.752 mM | 2.524 mM | 2.036 mM | 2.964 mM | 3.244 mM |  | 6.508 mM | 6.18 mM | 5.996 mM |  |  |  |  | 6.69% | 
9 | A14E, A21G, A22(GQEP)12, A70K^, A71P, B25H, B29R, desB30 human insulin/(227A, 234A, 235K hIgG4-Fc(228-447))4-[bis[2-[(2-acetyl)amino]ethyl]amino]-4-oxo-butanoyl Conjugate [Example 5.8] | 10.58% | 5.538 mM | 5.44 mM | 4.488 mM | 3.238 mM | 2.978 mM | 1.844 mM | 2.545 mM | 3.325 mM | 5.39 mM | 6.8425 mM | 6.4875 mM | 6.1875 mM |  |  |  |  | 5.31% | 3.55 mM
10 | A14E, A21G, A22(GQAPGQAPGQEP)6-GQAP, A98K^, A99P, B3Q, B25H, B29R, desB30 human insulin/(227A, 234A, 235K, 297E, 315Q, 384Q, des447 hIgG4-Fc(228-447))4-[bis[2-[(2-acetyl)amino]ethyl]carbamoylamino]butanoyl Conjugate [Example 5.24] | 4.60% | 5.604 mM | 5.98 mM | 5.172 mM | 4.164 mM | 2.924 mM | 3.128 mM | 3.352 mM | 6.272 mM | 5.788 mM | 5.824 mM | 6.092 mM | 6.016 mM | 5.872 mM | 6.072 mM |  |  | 3.83% | 
11 | A14E, A21G, A22(GQAPGQAPGQEP)6-GQAP, A98K^, A99P, B3Q, B25H, B29R, desB30 human insulin/(227A, 234A, 235K hIgG4-Fc(228-447))4-[bis[2-[(2-acetyl)amino]ethyl]amino]-4-oxo-butanoyl Conjugate [Example 5.5] | 3.34% | 5.266 mM | 5.276 mM | 4.894 mM | 4.358 mM | 3.106 mM | 2.33 mM | 2.786 mM | 4.764 mM | 5.842 mM | 6.016 mM | 5.76 mM | 5.794 mM |  |  |  |  | 2.21% | 4.422 mM
